One series relates to HEK293. The experiment in a line: Cytotoxicity against human HEK293 cells after 72 hrs by luminescence assay. It is filed as cell-based. To be noted: hek293, 72 h.
A further series relates to Raji. Description: Cytotoxicity against human Raji cells after 72 hrs by luminescence assay. Type of series: cell-based.
Another series concerns HepG2. Description: Cytotoxicity against human HepG2 cells after 72 hrs by luminescence assay. It is filed as cell-based. To be noted: hepg2, 72 h.
In a further series the test system is BJ. Description: Cytotoxicity against human BJ cells after 72 hrs by luminescence assay. It is filed as cell-based.
Series [1] is described as follows: Selectivity ratio of EC50 for human HepG2 cells to EC50 for Plasmodium falciparum.

As for `Cl.O=C(CCc1ccc(F)cc1)c1ccccc1OCC(O)CN(Cc1ccccc1)c1ccccc1` (racemic), the Activity result in the series on HEK293, in the series on Raji, with HepG2 and in the series on BJ was “Non-toxic” throughout. Moreover, the selectivity ratio in series [1] was more than 10.
In the case of `COc1cccc(N(CC(O)COc2ccccc2C(=O)CCc2ccc(F)cc2)c2ccccc2)c1.Cl` (racemic), the Activity entry with HEK293, in the series with Raji, with HepG2 and in the series with BJ was “Non-toxic” each time. Besides, in series [1], the selectivity ratio was more than 10.
Take `CN(CCc1ccccc1)CC(O)COc1ccccc1C(=O)CCc1ccc(F)cc1.Cl` (racemic): the Activity result in the series with HEK293, in the series on Raji, in the series with HepG2 and in the series with BJ was “Non-toxic” throughout. Besides, the selectivity ratio in series [1] is more than 10.
Turning to `CCN(CC)CC(O)COc1ccccc1C(=O)CCc1ccc(F)cc1.Cl` (racemic), the Activity entry in the series with HEK293, in the series on Raji, with HepG2 and with BJ was “Non-toxic” in each case. Moreover, the selectivity ratio in series [1] was more than 10.
Turning to `CCCN(CCC)CC(O)COc1ccccc1C(=O)CCc1ccc(F)cc1.Cl` (racemic), the Activity entry in the series on HEK293, in the series with Raji, with HepG2 and in the series with BJ was “Non-toxic” throughout. The selectivity ratio in series [1] is more than 10.
Turning to `CCCCN(CCCC)CC(O)COc1ccccc1C(=O)CCc1ccc(F)cc1.Cl` (racemic), the Activity result in the series with HEK293, in the series on Raji, with HepG2 and with BJ was “Non-toxic” in each case. For the same compound, in series [1], the selectivity ratio was more than 10.
`CC(C)N(CC(O)COc1ccccc1C(=O)CCc1ccc(F)cc1)c1ccccc1.Cl` (racemic): the Activity result in the series on HEK293, in the series with Raji, in the series with HepG2 and in the series with BJ was “Non-toxic” in each case. In series [1], the selectivity ratio was more than 10.
For the compound `Cl.O=C(CCc1ccc(F)cc1)c1ccccc1OCC(O)CN(C1CCCCC1)C1CCCCC1` (racemic), the Activity entry in the series with HEK293, in the series on Raji, in the series with HepG2 and with BJ was “Non-toxic” in each case. In series [1], the selectivity ratio was more than 10.
For the compound `Cl.O=C(CCc1ccccc1)c1cc(F)ccc1OCC(O)CNCc1ccccc1` (racemic), the Activity result with HEK293, in the series on Raji, in the series on HepG2 and in the series with BJ was “Non-toxic” each time. Moreover, the selectivity ratio in series [1] is more than 10.
In the case of `Cl.O=C(CCc1ccccc1)c1cc(F)ccc1OCC(O)CN(Cc1ccccc1)c1ccccc1` (racemic), the Activity result in the series on HEK293, in the series on Raji, in the series with HepG2 and in the series with BJ was “Non-toxic” throughout. For the same compound, in series [1], the selectivity ratio is more than 10.
As for `Cc1cccc(N(CC(O)COc2ccc(F)cc2C(=O)CCc2ccccc2)c2ccccc2)c1.Cl` (racemic), the Activity result with HEK293, in the series on Raji, with HepG2 and in the series on BJ was “Non-toxic” in each case. Moreover, the selectivity ratio in series [1] was more than 10.
In the case of `COc1cccc(N(CC(O)COc2ccc(F)cc2C(=O)CCc2ccccc2)c2ccccc2)c1.Cl` (racemic), the Activity entry in the series with HEK293, in the series with Raji, with HepG2 and in the series with BJ was “Non-toxic” each time. Also, the selectivity ratio in series [1] was more than 10.
`CN(CCc1ccccc1)CC(O)COc1ccc(F)cc1C(=O)CCc1ccccc1.Cl` (racemic): the Activity result in the series with HEK293, with Raji, with HepG2 and in the series with BJ was “Non-toxic” throughout. Further, the selectivity ratio in series [1] was more than 10.
With `CCN(CC)CC(O)COc1ccc(F)cc1C(=O)CCc1ccccc1.Cl` (racemic), the Activity result in the series on HEK293, in the series with Raji, in the series on HepG2 and in the series with BJ was “Non-toxic” each time. In series [1], the selectivity ratio is more than 10.
Consider `CCCN(CCC)CC(O)COc1ccc(F)cc1C(=O)CCc1ccccc1.Cl` (racemic), for which the Activity entry in the series on HEK293, with Raji, in the series on HepG2 and with BJ was “Non-toxic” throughout. The selectivity ratio in series [1] was more than 10.
With `CCCCN(CCCC)CC(O)COc1ccc(F)cc1C(=O)CCc1ccccc1.Cl` (racemic), the Activity entry in the series with HEK293, with Raji, with HepG2 and in the series on BJ was “Non-toxic” in each case. Moreover, in series [1], the selectivity ratio is more than 10.
`Cl.O=C(CCc1ccccc1)c1cc(F)ccc1OCC(O)CN(C1CCCCC1)C1CCCCC1` (racemic): the Activity result in the series with HEK293, in the series with Raji, with HepG2 and with BJ was “Non-toxic” each time. Further, in series [1], the selectivity ratio is more than 10.
As to `Cl.O=C(CCc1ccc(F)cc1)c1cc(F)ccc1OCC(O)CNCc1ccccc1` (racemic), the Activity entry in the series on HEK293, with Raji, in the series with HepG2 and in the series on BJ was “Non-toxic” each time. The selectivity ratio in series [1] was more than 10.
Turning to `Cl.O=C(CCc1ccc(F)cc1)c1cc(F)ccc1OCC(O)CN(Cc1ccccc1)c1ccccc1` (racemic), the Activity entry in the series on HEK293, in the series with Raji, with HepG2 and in the series with BJ was “Non-toxic” in each case. Also, the selectivity ratio in series [1] was more than 10.
With `Cc1cccc(N(CC(O)COc2ccc(F)cc2C(=O)CCc2ccc(F)cc2)c2ccccc2)c1.Cl` (racemic), the Activity result in the series on HEK293, with Raji, in the series with HepG2 and in the series with BJ was “Non-toxic” in each case. The selectivity ratio in series [1] was more than 10.
Consider `COc1cccc(N(CC(O)COc2ccc(F)cc2C(=O)CCc2ccc(F)cc2)c2ccccc2)c1.Cl` (racemic), for which the Activity result with HEK293, in the series with Raji, in the series with HepG2 and with BJ was “Non-toxic” in each case. In addition, in series [1], the selectivity ratio was more than 10.
On to `CN(CCc1ccccc1)CC(O)COc1ccc(F)cc1C(=O)CCc1ccc(F)cc1.Cl` (racemic), for which the Activity entry in the series with HEK293, in the series on Raji, in the series with HepG2 and in the series on BJ was “Non-toxic” in each case. Further, the selectivity ratio in series [1] was more than 10.
For the compound `CCN(CC)CC(O)COc1ccc(F)cc1C(=O)CCc1ccc(F)cc1.Cl` (racemic), the Activity result in the series on HEK293, in the series with Raji, in the series with HepG2 and in the series on BJ was “Non-toxic” in each case. For the same compound, in series [1], the selectivity ratio is more than 10.
On to `CCCN(CCC)CC(O)COc1ccc(F)cc1C(=O)CCc1ccc(F)cc1.Cl` (racemic), for which the Activity result with HEK293, in the series on Raji, in the series on HepG2 and with BJ was “Non-toxic” each time. Further, the selectivity ratio in series [1] was more than 10.
Turning to `CCCCN(CCCC)CC(O)COc1ccc(F)cc1C(=O)CCc1ccc(F)cc1.Cl` (racemic), the Activity entry in the series with HEK293, in the series on Raji, in the series with HepG2 and with BJ was “Non-toxic” in each case. For the same compound, the selectivity ratio in series [1] is more than 10.
With `CC(C)N(CC(O)COc1ccc(F)cc1C(=O)CCc1ccc(F)cc1)c1ccccc1.Cl` (racemic), the Activity result in the series on HEK293, in the series with Raji, with HepG2 and in the series on BJ was “Non-toxic” in each case. The selectivity ratio in series [1] was more than 10.
For the compound `Cl.O=C(CCc1ccc(F)cc1)c1cc(F)ccc1OCC(O)CN(C1CCCCC1)C1CCCCC1` (racemic), the Activity result in the series with HEK293, in the series with Raji, in the series on HepG2 and in the series on BJ was “Non-toxic” each time. Moreover, the selectivity ratio in series [1] is more than 10.
Regarding `Cl.O=C(CCc1ccccc1)c1ccccc1OCC(O)CN1CCCCC1` (racemic), the Activity entry with HEK293, in the series on Raji, in the series on HepG2 and in the series with BJ was “Non-toxic” throughout. For the same compound, in series [1], the selectivity ratio is more than 10.
For `Cl.O=C(CCc1ccccc1)c1ccccc1OCC(O)CN1CCC(Cc2ccccc2)CC1` (racemic), the Activity entry with HEK293, in the series on Raji, with HepG2 and in the series on BJ was “Non-toxic” each time. For the same compound, in series [1], the selectivity ratio was more than 10.
In the case of `Cl.O=C(CCc1ccccc1)c1ccccc1OCC(O)CN1CCC(c2ccc(Cl)cc2)CC1` (racemic), the Activity entry in the series with HEK293, in the series on Raji, in the series with HepG2 and in the series on BJ was “Non-toxic” in each case. In addition, the selectivity ratio in series [1] is more than 10.
For `Cl.O=C(CCc1ccccc1)c1ccccc1OCC(O)CN1CCC(O)(Cc2ccccc2)CC1` (racemic), the Activity result with HEK293, in the series on Raji, in the series with HepG2 and in the series on BJ was “Non-toxic” in each case. Besides, in series [1], the selectivity ratio is more than 10.

The values above are taken from ChEMBL document CHEMBL1914304 (J Med Chem, 2011).
